One assay concerns GABA turnover. In words: GABA turnover determination after maximal inhibition of GABA-T. Particulars: doses of 30 to about 300 mg/kg p.o. It counts as in vivo. An excerpt:
The activity of the compound of formula I on GABA turnover is evidenced in the following experiment: The determination of GABA turnover Is based on the linear increase in GABA level observed after the maximal inhibition of gamma-aminobutyric acid transaminase (GABA-T). The values obtained with this approach for the rate of GABA synthesis are independent of the inhibitors used and within the catalytic capacity of the enzymes involved in the GABA shunt.

Assay [1] relates to social withdrawal of intruder mice. The assay is described as follows: social withdrawal of intruder mice. It counts as in vivo. The settings on record: dose range of 1 to about 100 mg/kg p.o. An excerpt: The activity of the compound of formula I in the treatment of affective and attention disorders treatment is also evidenced, for example, in tests suitable for detecting drugs having potential behavioural desinhibitory and/or sociotropic effects which are thought to be relevant for recovery from social withdrawal, a cardinal feature of depression and related psychiatric conditions. For instance, drug effects on social withdrawal of intruder mice can be evaluated by using the basic method as described in Triangle, 1982, 21:95-105 and J. Clin. Psychiatry, 1994, 55:9 (suppl. B) 4-7.

Assay [2] relates to neuropathic mechanical hyperalgesia. The assay is described as follows: model of neuropathic pain in the guinea pig (partial sciatic nerve ligation, mechanical hyperalgesia). The settings on record: paw withdrawal threshold, up to 6 hours. It is filed as in vivo, Dunkin Hartley guinea pigs. An excerpt: The direct activity of the compound of formula I in the treatment of neuropathic pain is evidenced, for example, in the following model of neuropathic pain in the guinea pig: Dunkin Hartley guinea pigs are anaesthetised with enflurane (in N2O:O2 for guinea pigs) and the left sciatic nerve is exposed and partially ligated with thread. This procedure produces a mechanical hyperalgesia, which develops within 2-3 days and is maintained for at least 4 weeks. Paw withdrawal thresholds to a pressure stimulus are measured using an analgesymeter. Mechanical thresholds are taken on both the ipsilateral (ligated) and contralateral (unligated) paw prior to and then up to 6 hours following drug or vehicule administration. Reversal of hyperalgesia at each time point is calculated. Groups of 6 animals are used. Statistical analysis is carried out on withdrawal threshold readings using ANOVA followed by Tukey's HSD test.

Assay [3] has as its system chronic pain in patients with diabetic neuropathy. The assay is described as follows: clinical trials in chronic pain in patients with diabetic neuropathy. It counts as in vivo. The settings on record: Maintenance and Follow-up Periods. An excerpt: The activity of the compound of formula I in the treatment of neuropathic pain and related disorders can be confirmed in clinical trials evaluating the efficacy of a compound in treating chronic pain in patients with diabetic neuropathy.

Experimental findings from patent US20050004102A1, “Monohydroxycarbamazepine for use in the preparation of a medicament for the treatment of affective and attention disorder and neuropathic pain” (priority 2001, published 2005) are described below.

Turning to `NC(=O)N1c2ccccc2CC(O)c2ccccc21` (centres unmarked) [compound of formula I, 10-hydroxy-10,11-dihydro-carbamazepine], the GABA turnover rate result with GABA turnover was “dose-dependently inhibits”. Besides, the “social investigation in the treated mouse” value in assay [1] was “increases social investigation”. Moreover, the “reversal of neuropathic mechanical hyperalgesia” value in assay [2] (3 to about 100 mg/kg s.c.) was “significantly and dose-dependently reverses”; in assay [2] (10 to about 100 mg/kg p.o.) it was “significantly and dose-dependently reverses”. Moreover, the “pain severity ratings relative to placebo” value in assay [3] was “decrease pain severity ratings”.
